{
  "source": "patent US20110263016A1",
  "about": "“Expansion of Embryonic Stem Cells” (priority 2008, published 2011)",
  "key": {"H9 hESCs": {"tested_on": "H9 hESCs", "assay": "Expansion of hESCs in stirred suspension bioreactors", "type": "cell-based, human", "method": "Bioreactor Maintenance of hESCs. H9 cells passaged in static on Matrigel™ or using feeder layers were pre-treated for 1 hr with 10 μM Y-27632 (Sigma), then dissociated as described earlier. The hESCs were then inoculated into 125 ml bioreactors (NDS Technologies) at 1.8×10^4 cells/ml. The bioreactors contained 100 ml of mTeSR medium supplemented with 10 μM Y-27632 and 0.1 nM Rapamycin (Sigma), were agitated at 100 rpm and were incubated under standard conditions (37° C., 5% CO2, saturated humidity). After 24 hrs in suspension culture, the Y-27632 was removed and replaced with mTeSR medium containing 0.1 nM Rapamycin. […] The single cell suspension of hESCs was split 1:5 and inoculated into a new bioreactor containing 100 ml of mTeSR medium supplemented with 10 μM Y-27632 and 0.1 nM Rapamycin for 24 hrs.\nIn the bioreactor systems, hESCs (collected from static cultures containing Matrigel™ or human foreskin fibroblast feeder (HFF) cells) were inoculated at 1.8×10^4 cells/ml into 100 ml of mTeSR medium (Stemcell Technologies Inc.) and agitated at 100 rpm."}, "hESCs": {"tested_on": "hESCs", "details": "cited from earlier work"}},
  "data": [
    {"smiles": "C[C@@H](N)[C@H]1CC[C@H](C(=O)Nc2ccncc2)CC1", "note": "[Y-27632]", "values": [
      {"measurement": "hESC aggregate formation", "setting": "H9 hESCs; 10 μM ROCK inhibitor and 0.1 nM Rapamycin together, 1.8×10^4 cells/ml, mTeSR, 100 rpm", "value": "form tight aggregates"},
      {"measurement": "hESC aggregate formation when the inhibitor is left out", "setting": "H9 hESCs; ROCK inhibitor excluded from bioreactor cultures, by day 5, data not shown", "value": "noticeably fewer aggregates were observed and mainly single cells were observed by day 5"},
      {"measurement": "lag phase of the cultures", "setting": "H9 hESCs; exposure to ROCK inhibitor decreased from 4 days to 24 hrs", "value": "substantial decrease in the lag phase"},
      {"measurement": "overall expansion", "setting": "H9 hESCs; non-passaged cultures, ROCK inhibitor day 0 to day 4, collagenase every 5 days, over 20 days", "value": 67, "unit": "fold"},
      {"measurement": "survival rate of dissociated, single hESCs", "setting": "hESCs", "value": "increases the survival rate"}
    ]}
  ]
}
